Measurements reported in patent US12239654B2, “Compounds and methods for treating neurological and cardiovascular conditions” (Astrocyte Pharmaceuticals, Inc., priority 2016, dated 2025).
Read-outs that look alike come from different tables or passages of the source.

Assays:
[1] = In vitro stability of MRS2365 in human whole blood; format: in vitro ADME; conditions: EDTA-treated human whole blood, read-out: estimated half-life
Description: (§1) Whole blood was obtained from male CD-1 mice and human volunteers at Seventh Wave Laboratories (Maryland Heights, MO). Plasma and blood samples were prepared using either EDTA (1 mM) or lithium heparin as anticoagulants.
Blood Stability Determination: MRS2365, enalapril and procaine were solubilized in phosphate-buffered saline, pH 7.4. […] Stability incubations were initiated with the addition of MRS2365 (1 μM final concentration) (FIGS. 5 and 6). Blood sample aliquots were obtained at 0, 1, 2.5, 7.5, 10 and 30 minutes and placed in microtainer tubes. For metabolite scouting analyses, MRS2365 was incubated in heparinized human whole blood at a concentration of 100 μM for 10 or 30 minutes (FIG. 10). In all studies, plasma was immediately prepared by centrifugation at 4° C., placed in microtainer tubes, frozen on dry ice and stored at −80° C. until analysis.
(§2) The following table outlines the LC and MS/MS conditions employed (Table 11).
The calibration range for MRS2365 plasma and blood concentration standard curves was 5-5000 ng/mL. Quality control samples were utilized at concentrations of 32, 160, 800 and 4000 ng/mL.

[2] = LC-MS/MS metabolite scouting of MRS2365 in plasma and whole blood; format: in vitro ADME; conditions: EDTA-treated mouse and human whole blood
Description: Plasma Stability Determination: MRS2365, enalapril and procaine were solubilized in phosphate-buffered saline, pH 7.4. […] Stability incubations were initiated with the addition of MRS2365 (1 μM final concentration). Initial assessments of stability in EDTA-generated plasma utilized incubation timepoints of 0, 10, 30, 60, 120 and 240 minutes (FIGS. 3 and 4). Subsequent studies comparing EDTA- and heparin-generated plasma utilized incubation timepoints of 0, 1, 2.5, 5, 7.5, 10 and 30 minutes (FIG. 7). Additional plasma stability incubations comparing EDTA- and heparin-generated plasma were performed using timepoints of 0, 5, 10, 20, 30, 45, 60 and 90 seconds (FIG. 8). […]
Plasma and blood samples were also qualitatively analyzed for MRS2365 metabolites utilizing a LC-MS/MS-based “metabolite scouting” protocol. […] Blood and plasma samples were analyzed by both positive- and negative-ion LC/MS-MS for parent compound and metabolites as it was anticipated that the phosphorylated compounds would preferentially generate negative ions while the riboside MRS4322 would preferentially generate positive ions. In positive-ion mode, extracted ion chromatograms monitored masses in the range of 323.7-324.7 and 403.7-404.7 to scout for MRS4322 and MRS2347, respectively. Any ion peaks in these ranges were further analyzed to generate product ion spectra for these ion chromatogram peaks. […]

[3] = In vitro stability of MRS2365 in human plasma; format: in vitro ADME
Description: as §1
Plasma Stability Determination: MRS2365, enalapril and procaine were solubilized in phosphate-buffered saline, pH 7.4. […] Stability incubations were initiated with the addition of MRS2365 (1 μM final concentration). Initial assessments of stability in EDTA-generated plasma utilized incubation timepoints of 0, 10, 30, 60, 120 and 240 minutes (FIGS. 3 and 4). Subsequent studies comparing EDTA- and heparin-generated plasma utilized incubation timepoints of 0, 1, 2.5, 5, 7.5, 10 and 30 minutes (FIG. 7). Additional plasma stability incubations comparing EDTA- and heparin-generated plasma were performed using timepoints of 0, 5, 10, 20, 30, 45, 60 and 90 seconds (FIG. 8). For metabolite scouting analyses, MRS2365 was incubated in heparinized human plasma at a concentration of 100 μM for 10 or 30 minutes (FIG. 9). In all studies, plasma was immediately placed in microtainer tubes, frozen on dry ice and stored at −80° C. until analysis.
as §2
The calibration range for MRS2365 plasma and blood concentration standard curves was 5-5000 ng/mL. […]

[4] = Pharmacokinetics of MRS4322 following intraperitoneal administration to mice (plasma and brain concentrations, LC-MS/MS); format: in vivo; conditions: female, mouse, plasma; for Tmax: MRS4322 0.16 mg/kg ip; for half-life: ip, MRS4322 […] ip
Description: Animals: Female C576BL/6J mice weighing approximately 0.02 kg were used for this study, supplied by the University of Texas Health Sciences Center (San Antonio, TX). All studies were conducted under approved University of Texas Health Sciences Center IACUC protocols.
Drug Administration: MRS4322 was solubilized in DMSO and then diluted in saline to prepare dosing solution. Final dosing solution concentration of MRS4322 was 100 μM. A 100 μL volume of dosing solution was administered intraperitoneally to each mouse per 20 gram body weight; MRS4322 was administered intraperitoneally at 0.16 mg/kg or 0.5 μmol/kg. Three mice were administered MRS4322 for each sampling timepoint.
Tissue Sampling: Blood and brain samples were obtained at 0, 0.083, 0.25, 0.5, 1, 2 and 8 hours post-dose. At each timepoint, mice (3/timepoint) were euthanized in a […] chamber. Whole blood was obtained by cardiac puncture into Microtainer tubes containing heparin and immediately centrifuged for preparation of plasma; plasma was stored at −80° C. At each timepoint, whole brain samples were obtained by decapitation, rinsed in ice-cold phosphate-buffered saline and weighed. Brain samples were then immediately flash-frozen in liquid nitrogen and stored at −80° C.
The following table outlines the LC and MS/MS conditions employed:
The calibration range for the MRS4322 plasma concentration standard curve was 2.42-242 ng/mL. The calibration range for MRS4322 brain concentrations was 2.41-233 ng/mL.
For bioanalysis of brain concentrations of MRS4322, brain samples were homogenized in ice-cold phosphate-buffered saline in a 4× dilution. Aliquots of the resulting diluted brain homogenate were treated with acetonitrile and analyzed by LC-MS/MS. Because of the 4× homogenate dilution, the calibration range of the MRS4322 brain standard curve was translated to 9.64-932 ng/gm. In several samples, MRS4322 was detectable but fell below the brain LLOQ of 9.64 ng/gm but were above background; in these cases the final reported brain concentration was extrapolated based on MS peak heights.

[5] = Brain binding determination by brain homogenate ultrafiltration, neonatal pig; format: in vitro ADME; conditions: female, pH 7.4, 37° C., read-out: % Bound Mean (converted)
Description: Animals and Tissue Preparation. Plasma and brain samples from female neonatal pigs were obtained from the University of Pennsylvania and stored at −80° C. until use.
Brains were weighed and homogenized with 1:9 phosphate-buffered saline, pH 7.4 using an Omni tissue homogenizer.
Pooled homogenized brains were pre-warmed for 60 minutes in a humidified, 5% CO2 incubator maintained at 37° C. […] Spiked pooled brain homogenates were placed on a Nutator mixer in a humidified, 5% CO2 incubator at 37° C. for 60 minutes. After 60 minutes, three 800 ul aliquots of each sample were added to Centrifree centrifugal filters. The filters were subjected to centrifugation at 2900 rpm for 10 minutes at 37 C. Aliquots of residual brain homogenate and ultrafiltrate were collected for bioanalysis.
(§3) For each tissue matrix, standard curves were created and LLOQ/ULOQ concentrations determined.

[6] = Plasma binding determination by plasma ultrafiltration, neonatal pig; format: in vitro ADME; conditions: female, 37° C., read-out: % Bound Mean (converted)
Description: Plasma ultrafiltrate blank samples were prepared by thawing frozen plasma and then pre-warming plasma in a humidified 5% CO2 chamber at 37 C for 60 minutes. Aliquots of 800 ul were transferred to Centrifree Centrifugal Filters (Ultracel regenerated cellulose (NMWL 30,000 amu) Lot R5JA31736) and centrifuged at 2900 RPM at 37 C for 10 minutes; plasma water filtrates were collected and used in preparation of standards, blanks and QC standards.
Plasma Binding Determination. […] Plasma samples were pre-warmed for 60 minutes in a humidified, 5% CO2 incubator maintained at 37° C. […] Spiked plasma samples were incubated on a rotary mixer in a humidified 5% CO2 chamber at 37° C. for a minimum of 60 minutes. After 60 minutes, three 800 ul aliquots of each sample were added to Centrifree centrifugal filters. The filters were subjected to centrifugation at 2900 rpm for 10 minutes at 37° C. Three 100 ul aliquots of residual plasma were collected along with ultrafiltrate for bioanalysis.
as §3

Structure (SMILES) | half-life at 1 μM [1] [min] | metabolites detected [2] | half-life at 1 μM ([3]; EDTA-prepared human plasma, 1 μM, incubation out to 240 minutes) [min] | MRS2365 concentrations in heparin-treated plasma ([3]; heparin-treated human plasma, 0-90 seconds, even at 0 and 5 seconds) | Tmax ([4]; C57BL/6J, mean, read-out: Tmax Mean) [min] | half-life ([4]; C57BL/6J, mean, read-out: Half-life Mean (converted)) [min] | Tmax ([4]; C576BL/6J, animals A-C, read-out: Tmax) [min] | half-life ([4]; C576BL/6J, animals A-C, read-out: Half-life (converted)) [min] | fraction unbound at 60 min, 1 uM [5] | fraction unbound at 60 min, 1 uM [6]
CSc1nc(N)c2ncn([C@H]3[C@H](O)[C@H](O)[C@]4(COP(=O)(O)OP(=O)(O)O)C[C@H]34)c2n1 [MRS2365] | > 240 | No metabolites were detected | > 240 | extremely low | – | – | – | – | – | –
CSc1nc(N)c2ncn([C@H]3[C@H](O)[C@H](O)[C@]4(CO)C[C@H]34)c2n1 [MRS4322] | – | – | – | – | 4.98 | 18.6 | 4.98 | 18.4 | 0.253 | 0.784
